Data from US11767323B2, “Tricyclic pyridone compounds as JAK2 V617F inhibitors” (Incyte Corporation, priority 2020, dated 2023).

How the values were obtained:
[1] = biological target: catalytic domain (JH1, amino acids 826-1132) of human JAK2 (Homo sapiens (Human), UniProt O60674); experiment: JAK2 LanthaScreen JH1 Binding Assay; details: JAK2 JH1 1.5 nM, 50 nM tracer, 2 hours at 25° C.; read-out: JH1 BIND IC50
Protocol: Example A. JAK2 LanthaScreen JH1 Binding Assay
JAK2 JH1 binding assay utilizes catalytic domain (JH1, amino acids 826-1132) of human JAK2 expressed as N-terminal FLAG-tagged, biotinylated protein in a baculovirus expression system (Carna Biosciences, Product #08-445-20N). The assay was conducted in black 384-well polystyrene plates in a final reaction volume of 20 μL. JAK2 JH1 (1.5 nM) was incubated with compounds (100 nL serially diluted in DMSO) in the presence of 50 nM Fluorescent JAK2-JH1 Tracer and 0.5 nM Streptavidin-Tb cryptate (Cisbio Part #610SATLB) in assay buffer (50 mM Tris, pH=7.5, 10 mM MgCl2, 0.01% Brij-35, 0.1% BSA, 1 mM EGTA, 5% Glycerol and 5 mM DTT). Non-specific binding was accessed in the presence of 2 mM ATP. After incubation for 2 hours at 25° C., LanthaScreen signals were read on a PHERAstar FS plate reader (BMG LABTECH). Data was analyzed with IDBS XLfit and GraphPad Prism 5.0 software using a four parameter dose response curve to determine IC50 for each compound.

[2] = biological target: pseudo-kinase domain (JH2, amino-acids 536-812) of human Wild Type JAK2 (Homo sapiens (Human), UniProt O60674, F794H/W659A/W777A); experiment: JAK2 LanthaScreen JH2-WT Binding Assay; details: JAK2 JH2-WT 0.145 nM, 50 nM tracer, 1 hour at 25° C.; read-out: JH2 BIND WT IC50
Protocol: Example B. JAK2 LanthaScreen JH2-WT Binding Assay
(§1) JAK2 JH2-WT binding assay utilizes pseudo-kinase domain (JH2, amino-acids 536-812 with 3 surface mutations W659A, W777A, F794H) of human Wild Type JAK2 expressed as C-terminal His-Avi-tagged, biotinylated protein in a baculovirus expression system (BPS Bioscience, Catalog #79463). The assay was conducted in black 384-well polystyrene plates in a final reaction volume of 20 μL. JAK2 JH2-WT (0.145 nM) was incubated with compounds (100 nL serially diluted in DMSO) in the presence of 50 nM Fluorescent JAK2-JH2 Tracer (MedChem Express Catalog #HY-102055) and 0.25 nM Streptavidin-Tb cryptate (Cisbio Part #610SATLB) in assay buffer (50 mM Tris, pH=7.5, 10 mM MgCl2, 0.01% Brij-35, 0.1% BSA, 1 mM EGTA, 5% Glycerol and 5 mM DTT). Non-specific binding was accessed in the presence of 2 mM ATP. After incubation for 1 hour at 25° C., LanthaScreen signals were read on a PHERAstar FS plate reader (BMG LAB TECH). Data was analyzed with IDBS XLfit and GraphPad Prism 5.0 software using a four parameter dose response curve to determine IC50 for each compound.

[3] = biological target: pseudo-kinase domain (JH2, amino-acids 536-812) of human V617F mutant JAK2 (Homo sapiens (Human), UniProt O60674, F794H/V617F/W659A/W777A); experiment: JAK2 LanthaScreen JH2-V617F Binding Assay; details: JAK2 JH2-V617F 0.26 nM, 50 nM tracer, 1 hour at 25° C.; read-out: JH2 BIND V617F IC50
Protocol: Example C. JAK2 LanthaScreen JH2-V617F Binding Assay
as §1, with “JH2-V617F” for “JH2-WT”, “V617F mutant” for “Wild Type”, “#79498).” for “#79463).”, “JH2-V617F (0.26” for “JH2-WT (0.145”, “LABTECH).” for “LAB TECH).”

[4] = biological target: catalytic domain (JH1, amino acids 808-1132) of human JAK2 (Homo sapiens (Human), UniProt O60674); experiment: JAK2 HTRF Enzyme Activity Assay; format: biochemical; details: JAK2 0.015 nM, ATP (30 μM or 1 mM), 60 minutes at 25° C.
Protocol: Example D. JAK2 HTRF Enzyme Activity Assay
JAK2 enzyme activity assays utilize catalytic domain (JH1, amino acids 808-1132) of human JAK2 expressed as N-terminal His-tagged protein in a baculovirus expression system (BPS Bioscience, Catalog #40450). The assays was conducted in black 384-well polystyrene plates in a final reaction volume of 20 μL. JAK2 (0.015 nM) was incubated with compounds (100 nL serially diluted in DMSO) in the presence of ATP (30 μM or 1 mM) and 500 nM Biotin-labeled EQEDEPEGDYFEWLE (SEQ ID NO.: 1) peptide (BioSource International, custom synthesis) in assay buffer (50 mM Tris, pH=7.5, 10 mM MgCl2, 0.01% Brij-35, 0.1% BSA, 1 mM EGTA, 5% Glycerol and 5 mM DTT) for 60 minutes at 25° C. The reactions were stopped by the addition of 10 μL of detection buffer (50 mM Tris, pH 7.8, 0.5 mg/mL BSA, 150 mM NaCl), supplemented with EDTA, LANCE Eu-W1024 anti-phosphotyrosine (PY20), (PerkinElmer, Catalog #AD0067) and Streptavidin SureLight APC (PerkinElmer Catalog #CR130-100), for a final concentration of 15 mM, 1.5 nM and 75 nM, respectively. HTRF signals were read after 30 minutes incubation at room temperature on a PHERAstar FS plate reader (BMG LAB TECH). Data was analyzed with IDBS XLfit and GraphPad Prism 5.0 software using a four parameter dose response curve to determine IC50 for each compound.

Sequence of pseudo-kinase domain (JH2, amino-acids 536-812) of human V617F mutant JAK2 (O60674 536-812 V617F/W659A/W777A/F794H): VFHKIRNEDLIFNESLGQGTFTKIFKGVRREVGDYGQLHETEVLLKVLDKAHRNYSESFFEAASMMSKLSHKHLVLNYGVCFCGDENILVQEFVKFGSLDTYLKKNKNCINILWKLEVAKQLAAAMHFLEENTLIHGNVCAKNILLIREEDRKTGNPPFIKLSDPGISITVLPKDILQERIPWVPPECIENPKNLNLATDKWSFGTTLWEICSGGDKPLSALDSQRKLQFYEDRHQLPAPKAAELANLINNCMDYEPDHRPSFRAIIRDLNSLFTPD
Sequence of catalytic domain (JH1, amino acids 826-1132) of human JAK2 (O60674 826-1132): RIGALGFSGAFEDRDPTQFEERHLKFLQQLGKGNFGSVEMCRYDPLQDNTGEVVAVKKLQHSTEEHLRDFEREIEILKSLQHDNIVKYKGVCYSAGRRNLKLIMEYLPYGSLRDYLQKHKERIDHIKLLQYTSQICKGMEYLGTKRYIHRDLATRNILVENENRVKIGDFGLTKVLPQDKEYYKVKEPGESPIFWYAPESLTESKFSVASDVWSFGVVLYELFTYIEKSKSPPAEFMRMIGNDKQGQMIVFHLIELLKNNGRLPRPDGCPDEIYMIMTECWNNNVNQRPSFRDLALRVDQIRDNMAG
Sequence of pseudo-kinase domain (JH2, amino-acids 536-812) of human Wild Type JAK2 (O60674 536-812 W659A/W777A/F794H): as the sequence (O60674 536-812 V617F/W659A/W777A/F794H) above, with F82V counted along it
Sequence of catalytic domain (JH1, amino acids 808-1132) of human JAK2 (O60674 808-1132): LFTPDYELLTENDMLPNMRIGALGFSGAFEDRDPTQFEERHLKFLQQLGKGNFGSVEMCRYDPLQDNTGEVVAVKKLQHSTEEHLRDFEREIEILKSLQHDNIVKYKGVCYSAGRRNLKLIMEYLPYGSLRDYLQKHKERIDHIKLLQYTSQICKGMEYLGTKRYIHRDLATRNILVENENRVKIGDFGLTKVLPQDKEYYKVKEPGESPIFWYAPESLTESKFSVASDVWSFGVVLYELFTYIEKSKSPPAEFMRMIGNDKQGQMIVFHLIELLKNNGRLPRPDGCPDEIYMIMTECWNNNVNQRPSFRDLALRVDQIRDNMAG

Row | Compound | IC50 [1] [nM] | IC50 [2] [nM] | IC50 [3] [nM] | IC50 [4] [nM]
1 | CS(=O)(=O)C1CCN(Cc2ccc(-c3cc4c(ncc5[nH]c(=O)c(-c6ccccc6)cc54)[nH]3)cc2)CC1 [Example 1, 2-(4-((4-(Methylsulfonyl)piperidin-1-yl)methyl)phenyl)-8-phenyl-3,6-dihydro-7H-pyrrolo[3,2-f][1,7]naphthyridin-7-one] | 1000 to 10000 | 1000 to 10000 | 1000 to 10000 | > 10000
2 | CS(=O)(=O)C1CCN(Cc2ccc(-c3cc4c(ncc5[nH]c(=O)c(-c6ccc(C(=O)O)cc6)cc54)[nH]3)cc2)CC1 [Example 2, 4-(2-(4-((4-(Methylsulfonyl)piperidin-1-yl)methyl)phenyl)-7-oxo-6,7-dihydro-3H-pyrrolo[3,2-f][1,7]naphthyridin-8-yl)benzoic acid] | > 10000 | ≤ 100 | ≤ 100 | > 10000
3 | CS(=O)(=O)C1CCN(Cc2ccc(-c3cc4c(ncc5[nH]c(=O)c(C#N)cc54)[nH]3)cc2)CC1 [Example 3, 2-(4-((4-(Methylsulfonyl)piperidin-1-yl)methyl)phenyl)-7-oxo-6,7-dihydro-3H-pyrrolo[3,2-f][1,7]naphthyridine-8-carbonitrile] | > 10000 | 1000 to 10000 | 1000 to 10000 | > 10000
4 | Cn1nccc1-c1cc2c(cnc3[nH]c(-c4ccc(CN5CCC(S(C)(=O)=O)CC5)cc4)cc32)[nH]c1=O [Example 4, 8-(1-Methyl-1H-pyrazol-5-yl)-2-(4-((4-(methylsulfonyl)piperidin-1-yl)methyl)phenyl)-3,6-dihydro-7H-pyrrolo[3,2-f][1,7]naphthyridin-7-one] | 1000 to 10000 | 1000 to 10000 | 1000 to 10000 | 1000 to 10000
5 | CS(=O)(=O)C1CCN(Cc2ccc(-c3cc4c(ncc5[nH]c(=O)c(-c6nnn[nH]6)cc54)[nH]3)cc2)CC1 [Example 5, 2-(4-((4-(Methylsulfonyl)piperidin-1-yl)methyl)phenyl)-8-(1H-tetrazol-5-yl)-3,6-dihydro-7H-pyrrolo[3,2-f][1,7]naphthyridin-7-one] | > 10000 | 500 to 1000 | 1000 to 10000 | 1000 to 10000
6 | Cc1c(-c2ccc(C(=O)O)cc2)c(=O)[nH]c2cnc3[nH]c(-c4ccc(CN5CCC(S(C)(=O)=O)CC5)cc4)cc3c12 [Example 6, 4-(9-Methyl-2-(4-((4-(methylsulfonyl)piperidin-1-yl)methyl)phenyl)-7-oxo-6,7-dihydro-3H-pyrrolo[3,2-f][1,7]naphthyridin-8-yl)benzoic acid] | > 10000 | ≤ 100 | ≤ 100 | > 10000
7 | Cc1c(-c2ccc(-n3cnnn3)cc2)c(=O)[nH]c2cnc3[nH]c(-c4ccc(CN5CCC(S(C)(=O)=O)CC5)cc4)cc3c12 [Example 7, 8-(4-(1H-Tetrazol-1-yl)phenyl)-9-methyl-2-(4-((4-(methylsulfonyl)piperidin-1-yl)methyl)phenyl)-3,6-dihydro-7H-pyrrolo[3,2-f][1,7]naphthyridin-7-one] | 1000 to 10000 | 100 to 500 | 1000 to 10000 | 1000 to 10000
8 | Cc1c(-c2ccc(C(=O)O)cc2)c(=O)n(C)c2cnc3[nH]c(-c4ccc(CN5CCC(S(C)(=O)=O)CC5)cc4)cc3c12 [Example 8, 4-(6,9-Dimethyl-2-(4-((4-(methylsulfonyl)piperidin-1-yl)methyl)phenyl)-7-oxo-6,7-dihydro-3H-pyrrolo[3,2-f][1,7]naphthyridin-8-yl)benzoic acid] | 100 to 500 | ≤ 100 | ≤ 100 | 100 to 500
9 | Cc1ccc(-c2c(C)c3c4cc(-c5ccc(CN6CCC(S(C)(=O)=O)CC6)cc5)[nH]c4ncc3n(C)c2=O)cc1 [Example 9, 6,9-Dimethyl-2-(4-((4-(methylsulfonyl)piperidin-1-yl)methyl)phenyl)-8-(p-tolyl)-3,6-dihydro-7H-pyrrolo[3,2-f][1,7]naphthyridin-7-one] | ≤ 100 | ≤ 100 | ≤ 100 | ≤ 100
10 | Cc1c(-c2ccc(Cl)cc2)c(=O)n(C)c2cnc3[nH]c(-c4ccc(CN5CCC(S(C)(=O)=O)CC5)cc4)cc3c12 [Example 10, 8-(4-Chlorophenyl)-6,9-dimethyl-2-(4-((4-(methylsulfonyl)piperidin-1-yl)methyl)phenyl)-3,6-dihydro-7H-pyrrolo[3,2-f][1,7]naphthyridin-7-one] | 100 to 500 | ≤ 100 | ≤ 100 | 100 to 500
11 | Cc1c(-c2cccc(Cl)c2)c(=O)n(C)c2cnc3[nH]c(-c4ccc(CN5CCC(S(C)(=O)=O)CC5)cc4)cc3c12 [Example 11, 8-(3-Chlorophenyl)-6,9-dimethyl-2-(4-((4-(methylsulfonyl)piperidin-1-yl)methyl)phenyl)-3,6-dihydro-7H-pyrrolo[3,2-f][1,7]naphthyridin-7-one] | ≤ 100 | ≤ 100 | ≤ 100 | ≤ 100
12 | COc1ccc(-c2c(C)c3c4cc(-c5ccc(CN6CCC(S(C)(=O)=O)CC6)cc5)[nH]c4ncc3n(C)c2=O)cc1 [Example 12, 8-(4-Methoxyphenyl)-6,9-dimethyl-2-(4-((4-(methylsulfonyl)piperidin-1-yl)methyl)phenyl)-3,6-dihydro-7H-pyrrolo[3,2-f][1,7]naphthyridin-7-one] | 100 to 500 | ≤ 100 | ≤ 100 | ≤ 100
13 | Cc1c(-c2ccc(C#N)cc2)c(=O)n(C)c2cnc3[nH]c(-c4ccc(CN5CCC(S(C)(=O)=O)CC5)cc4)cc3c12 [Example 13, 4-(6,9-Dimethyl-2-(4-((4-(methylsulfonyl)piperidin-1-yl)methyl)phenyl)-7-oxo-6,7-dihydro-3H-pyrrolo[3,2-f][1,7]naphthyridin-8-yl)benzonitrile] | 100 to 500 | ≤ 100 | ≤ 100 | 100 to 500
